Data published in patent publication US20150336996A1, “MANGANESE-BASED MAGNETIC RESONANCE CONTRAST AGENTS” (THE GENERAL HOSPITAL CORPORATION, priority 2013, published 2015).
One block for each compound: values may come before it.

Experiments:
Format in all cases: physicochemical
[1] = T1 relaxivity (r1) by inversion recovery on Bruker mq60 Minispec, 1.4 T, 37° C., TRIS buffer pH 7.4; settings: for r1 (relaxivity of manganese complexes): pH 7.4, 37° C., 1.4 Tesla
Procedure: (§1) Liquid chromatography-electrospray mass spectrometry (LC-MS) was performed using an Agilent 1100 Series apparatus with an LC/MSD trap and Daly conversion dynode detector with UV detection at 220, 254 and 280 nm. The methods used on this system are as follows: (a) Luna C18 column (100×2 mm); eluent A: H2O/0.1% formic acid, B: MeCN/0.1% formic acid; gradient: 5% B to 95% B over 9 minutes; flow rate 0.8 mL/min (used for characterization of organic compounds), and (b) Kromasil C18 column (250×4.6 mm); eluent C: 95% MeCN/5% 10 mM ammonium acetate, D: 10 mM ammonium acetate; gradient 5% C to 8% C over 14 minutes; flow rate 0.8 ml/min (used for characterization of manganese complexes). Reversed-phase semipreparative purification was performed on a Rainin Dynamax HPLC system with UV detection at 254 nm using a Polaris C18 column. The method used for purification is as follows: The mobile phase A was 50 mM ammonium acetate buffer, pH 6.5 and mobile phase B was a mixture of 5% 50 mM ammonium acetate buffer, pH 6.5/95% MeCN. Starting from 5% B, the fraction of B increased to 8% over 23 minutes. The column was washed with 100% B for 2 minutes and then ramped to 5% B. The system was re-equilibrated at 5% B for 3 minutes. Relaxivity measurements were performed on a Bruker mq60 Minispec at 1.4 T and 37° C. Manganese concentrations were determined using an Agilent 7500a ICP-MS system. All samples were diluted with 0.1% Triton X-100 in 5% nitric acid containing 20 ppb of Lu (as internal standard). The ratio of Mn (54.94)/Lu(174.97) was used to quantify the manganese concentration. A linear calibration curve ranging from 0.1 ppb to 200 ppb was generated daily for the quantification. UV-Vis spectra were recorded on a SpectraMax M2 spectrophotometer using quartz cuvette with a 1 cm path length. Cyclic voltammetry of Mn^IIHBET, Mn^IIEDTA and Mn^IIIHBET was recorded using a Nuvant EZstat pro potentiostat in TRIS buffer (pH=7.4), containing 0.5M KNO3 as supporting electrolyte, at 100 mVs-1 scan rate. Glassy carbon was used as the working electrode, Ag/AgCl served as the reference electrode and Pt wire was used as the auxiliary electrode. The K4FeCN6/K3FeCN6 couple was used as the internal standard.
T1 was measured with an inversion recovery pulse sequence taking 10 inversion times. Relaxivity was determined from the slope of a plot of 1/T1 vs. concentration of in TRIS buffer, pH=7.4 at 37° C. The concentration of manganese in each stock solution was determined using ICP-MS.
All chemicals and solvents were purchased commercially and used without further purification. NMR spectra were recorded on either a 500 MHz or 400 MHz Varian spectrometers. Chemical shifts are reported in δ (ppm). For ^1H and ^13C NMR spectra, the residual solvent peaks were used as internal reference, except for the ^13C NMR of the ligand where tertiary-butanol was used as the internal reference. Liquid chromatography-electrospray mass spectrometry (LC-MS) was performed using an Agilent 1100 Series apparatus with an LC/MSD trap and Daly conversion dynode detector with UV detection at 220, 254 and 280 nm. The methods used on this system are as follows: (a) Luna C18 column (100×2 mm); eluent A: H2O/0.1% formic acid, B: MeCN/0.1% formic acid; gradient: 5% B to 95% B over 9 minutes; flow rate 0.8 mL/min (used for characterization of organic compounds), and (b) Kromasil C18 column (250×4.6 mm); eluent C: 95% MeCN/5% 10 mM ammonium acetate, D: 10 mM ammonium acetate; gradient 5% C to 8% C over 14 minutes; flow rate 0.8 ml/min (used for characterization of manganese complexes). Reversed-phase semipreparative purification was performed on the Rainin Dynamax HPLC system with UV detection at 254 nm using a Polaris C18 column. The method used for purification is as follows: The mobile phase A was 50 mM ammonium acetate buffer, pH 6.5 and mobile phase B was a mixture of 5% 50 mM ammonium acetate buffer, pH 6.5/95% MeCN. Starting from 5% B, the fraction of B increased to 8% over 23 minutes. […]

[2] = UV spectrum as a function of pH (phenol deprotonation pKa); settings: fit of UV absorbance vs pH
Procedure: To probe the speciation of the manganese complexes in solution, pH titrations of 1:1 Mn^2+:ligand were performed using a 1 N NaOH under N2 atmosphere (FIG. 21).
To determine the species that exists in these two pH ranges the UV spectrum as a function of pH was monitored (see FIGS. 22-24).

[3] = Cyclic voltammetry of the Mn(III)/Mn(II) redox couple; settings: for Half-cell potential vs. normal hydrogen electrode (NHE): pH 7.4, vs. NHE
Procedure: Potentials are vs. K4Fe(CN)6/K3Fe(CN)6; and in (b), a Cottrell plot of the Mn^2+/Mn^3+ couple—ia, (decreasing line) and ic (increasing line) vs. √v, where v=scan rate.
as §1

[4] = Kinetics of reduction of Mn^III-HBET by glutathione; settings: 37° C., pH 7.4; first-order in both [GSH] and [Mn^III-HBET]
Procedure: A series of kinetic experiments were conducted at 37° C. (pH 7.4) to determine the empirical rate law for the reduction of Mn^III-HBET by glutathione. […] This feature allowed us to easily monitor the reduction of Mn^III-HBET over time. We measured initial reaction rates at three different glutathione concentrations (5 mM, 10 mM and 20 mM). For each glutathione concentration, the reaction was performed at four different initial concentrations of M^III-HBET (0.3 mM, 0.4 mM, 0.5 mM and 0.6 mM). Based on these experiments, we determined that the reaction was first-order in both [GSH] and [Mn^III-HBET] with an overall second-order rate constant of (3.8±0.3)×10^−1 M^−1 s^−1.
This series of kinetic experiments were conducted at 37° C. (pH 7.4) to determine the empirical rate law for the reduction of Mn^III-HBET by glutathione. […] Initial reaction rates were measured at a three different glutathione concentrations (5 mM, 10 mM and 20 mM). […]
Here, the observed rate constant (kobs) is simply the product of the actual rate constant (k) and [GSH], t is time, and the subscripts ‘t’ and ‘o’ refer to the concentration at time T or the initial concentration, respectively. […] Based on these experiments, we determined that the reaction was first-order in both [GSH] and [Mn^III-HBET] with an overall second-order rate constant of (3.8±0.3)×10^−1 M^−1 s^−1.

[5] = Stability of manganese complexes in buffers
Procedure: The stability of the manganese complexes were measured in different buffers using concentrations similar to those found in the blood plasma (1 mM phosphate buffer, 25 mM sodium bicarbonate buffer and 0.1 mM citrate buffer). A solution, 0.5 mM, of the manganese complex was incubated in the respective buffers at 37° C. (pH=7.4) and the species were then quantified on the LC-MS using the method as described earlier. The manganese complexes (0.5 mM) were also treated with EDTA (0.5 mM) in TRIS buffer (pH=7.4) and incubated at 37° C. for 1 hour. The species were then quantified on the LC-MS using the method as described earlier.

[6] = Relaxivity at different field strengths in pH 7.4 HEPES buffer; settings: 37° C.
Procedure: The relaxivities of the compounds for Formulas (XI) and (XII) were determined at different field strengths at 37° C. in pH 7.4 HEPES buffer. The relaxivity was obtained from the slope of a plot of 1/T1 vs. [Mn] for different Mn concentrations. Since Formula (XI) contains 6 Mn per molecule, the ionic (per Mn) and molecular (per molecule) relaxivities are given below.

[7] = Stability of solutions at room temperature
Procedure: 40 binds Mn^II in a 1:1 ratio. This complex was prepared and characterized in situ. Mn^II was carefully titrated to 40 and Mn:40 stoichiometry was monitored by LC-MS or T2-relaxometry as describe above. […] 433.1.

Compound: O=C([O-])CN(CC(=O)[O-])C1CCCCC1N(CC(=O)[O-])Cc1ccccc1[O-].[Mn+3].[Na+] (racemic) [Compound 21, Na[Mn^IIIcycHBET]]
r1 (relaxivity of manganese complexes) [1]: 1.56 mM⁻¹ s⁻¹
Half-cell potential vs. normal hydrogen electrode (NHE) [3]: 365 mV

Compound: O=C([O-])CN(CC(=O)[O-])C1CCCCC1N(CC(=O)[O-])Cc1cc([N+](=O)[O-])ccc1[O-].[Mn+3].[Na+] (racemic) [Compound 31, Na[Mn^IIIcycHBET-NO2]]
Half-cell potential vs. normal hydrogen electrode (NHE) [3]: 488 mV

Compound: O=C([O-])CN(CCN(CC(=O)[O-])Cc1ccccc1[O-])Cc1ccccc1[O-].[Mn+3] [Mn^III-HBED, reference compound]
half-cell potentials (Mn^II/Mn^III) ([3]; irreversible oxidation / quasi-reversible reduction peaks, TRIS buffer pH 7.4): 0.016 V

Compound: Mn6[N3P3-(TyOH-EDTA)6] [Compound 55]
Relaxivity r1 at 0.47T (per Mn) ([6]; 0.47T, ionic (per Mn)): 9.07 mM⁻¹ s⁻¹
Relaxivity r1 at 0.47T per molecule ([6]; 0.47T, molecular (per molecule, 6 Mn)): 54.4 mM⁻¹ s⁻¹
Relaxivity r1 at 1.4T (per Mn) ([6]; 1.4T, ionic (per Mn)): 9.28 mM⁻¹ s⁻¹
Relaxivity r1 at 1.4T per molecule ([6]; 1.4T, molecular (per molecule, 6 Mn)): 55.7 mM⁻¹ s⁻¹
Relaxivity r1 at 4.7T (per Mn) ([6]; 4.7T, ionic (per Mn)): 6.54 mM⁻¹ s⁻¹
Relaxivity r1 at 4.7T per molecule ([6]; 4.7T, molecular (per molecule, 6 Mn)): 39.2 mM⁻¹ s⁻¹
Relaxivity r1 at 9.4T (per Mn) ([6]; 9.4T, ionic (per Mn)): 4.94 mM⁻¹ s⁻¹
Relaxivity r1 at 9.4T per molecule ([6]; 9.4T, molecular (per molecule, 6 Mn)): 29.6 mM⁻¹ s⁻¹
Relaxivity r1 at 11.7T (per Mn) ([6]; 11.7T, ionic (per Mn)): 3.57 mM⁻¹ s⁻¹
Relaxivity r1 at 11.7T per molecule ([6]; 11.7T, molecular (per molecule, 6 Mn)): 21.4 mM⁻¹ s⁻¹

Compound: Na[Mn(TyOH-EDTA)] [Compound 52]
Relaxivity r1 at 0.47T (per Mn) ([6]; 0.47T, ionic (per Mn)): 3.60 mM⁻¹ s⁻¹
Relaxivity r1 at 1.4T (per Mn) ([6]; 1.4T, ionic (per Mn)): 2.80 mM⁻¹ s⁻¹
Relaxivity r1 at 9.4T (per Mn) ([6]; 9.4T, ionic (per Mn)): 3.65 mM⁻¹ s⁻¹
Relaxivity r1 at 11.7T (per Mn) ([6]; 11.7T, ionic (per Mn)): 3.05 mM⁻¹ s⁻¹

Second part, led by results:

r1 (relaxivity of manganese complexes) [1]: 3.26 mM⁻¹ s⁻¹
pKa for ionization of the phenol [2]: 7.95
Compound: O=C([O-])CN(CC(=O)[O-])C1CCCCC1N(CC(=O)[O-])Cc1ccccc1[O-].[Mn+2].[Na+].[Na+] (racemic) [Compound 20, Na2[Mn^IIcycHBET]]

r1 (relaxivity of manganese complexes) [1]: 2.30 mM⁻¹ s⁻¹
Compound: O=C([O-])CN(CC(=O)[O-])C1CCCCC1N(CC(=O)[O-])Cc1cc([N+](=O)[O-])ccc1[O-].[Mn+2].[Na+].[Na+] (racemic) [Compound 30, Na2[Mn^IIcycHBET-NO2)]]

T1 relaxivities ([1]; 1.4 T, Tris buffered saline pH 7.4, 37° C.): 1.05 mM⁻¹ s⁻¹
r1 (relaxivity of manganese complexes) [1]: 1.05 mM⁻¹ s⁻¹
stability in phosphate and carbonate buffers [5]: stable
Compound: O=C([O-])CN(CCN(CC(=O)[O-])Cc1ccccc1[O-])CC(=O)[O-].[Mn+3].[Na+] [Compound 5, Na[Mn^IIIHBET]]
overall second-order rate constant of reduction by glutathione [4]: (3.8±0.3)×10^−1 M^−1 s^−1

r1 (relaxivity of manganese complexes) [1]: 3.11 mM⁻¹ s⁻¹
Half-cell potential vs. normal hydrogen electrode (NHE) [3]: 344 mV
pKa for ionization of the phenol [2]: 7.91
Compound: COc1ccc([O-])c(CN(CCN(CC(=O)[O-])CC(=O)[O-])CC(=O)[O-])c1.[Mn+2].[Na+].[Na+] [Compound 9, Na2[Mn^IIHBET-OMe]]

r1 (relaxivity of manganese complexes) [1]: 2.28 mM⁻¹ s⁻¹
pKa for ionization of the phenol [2]: 4.84
Compound: O=C([O-])CN(CCN(CC(=O)[O-])Cc1cc([N+](=O)[O-])ccc1[O-])CC(=O)[O-].[Mn+2].[Na+].[Na+] [Compound 13, Na2[Mn^IIHBET-NO2]]

r1 (relaxivity of manganese complexes) [1]: 0.34 mM⁻¹ s⁻¹
Half-cell potential vs. normal hydrogen electrode (NHE) [3]: 476 mV
Compound: O=C([O-])CN(CCN(CC(=O)[O-])Cc1cc([N+](=O)[O-])ccc1[O-])CC(=O)[O-].[Mn+3].[Na+] [Compound 14, Na[Mn^IIIHBET-NO2]]

Relaxivities r1 at 1.41T ([1]; 1.41T, 37° C., pH 7.4 Tris buffer): 2.50 mM⁻¹ s⁻¹
stability of solutions [7]: indefinitely stable
Compound: [Mn(CyP3A)] [Compound 41]
